# Source: the PolyMetriX glass transition set
# ± gives the standard deviation of the reports.
row,Compound,glass transition temperature [°C]
1,*CC(*)c1ccc(COCCC(F)(F)C(F)(F)C(F)(F)C(F)(F)C(F)(F)C(F)(F)F)cc1 (repeat unit),18.00
2,*Oc1cccc(OC(=O)c2cccc(C(*)=O)c2)c1 (repeat unit),147.00
3,*CC(*)C(=O)OCCCCCCOc1ccc(C(=O)Oc2ccc(C#N)cc2)cc1 (repeat unit),19.50
4,*C(=O)NNC(=O)c1ccc([Si](c2ccccc2)(c2ccccc2)c2ccc(C(=O)NNC(=O)c3cncc(*)c3)cc2)cc1 (repeat unit),234.00
5,*C(=O)Nc1ccc(Oc2ccc(NC(=O)c3ccc4c(c3)C(=O)N(c3ccc(Oc5ccc(N6C(=O)c7ccc(*)cc7C6=O)cc5)cc3)C4=O)cc2)cc1 (repeat unit),282.00
6,*Oc1ccc(C2(c3ccc(Oc4ccc(C(=O)Oc5ccc(C6(c7ccc(OC(=O)c8ccc(*)cc8)cc7)CCC(c7ccccc7)CC6)cc5)cc4)cc3)CCC(C(C)(C)C)CC2)cc1 (repeat unit),172.00
7,*c1ccc(Oc2ccc(-c3csc(/N=C/c4ccc(OCCCCCCOc5ccc(/C=N/c6nc(*)cs6)cc5)cc4)n3)cc2)cc1 (repeat unit),117.00
8,*OC(CC)C(*)=O (repeat unit),15.00
9,*Oc1ccc(C(C#N)(c2ccccc2)c2ccc(OC(*)=O)cc2)cc1 (repeat unit),138.00
10,*c1ccc(Oc2cccc(N3C(=O)c4ccc(Oc5cccc6c(Oc7ccc8c(c7)C(=O)N(*)C8=O)cccc56)cc4C3=O)c2)cc1 (repeat unit),235.00
11,*c1ccc(N2C(=O)c3ccc(C(=O)c4ccc5c(c4)C(=O)N(c4ccc(-c6nc7cc(S(=O)(=O)c8ccc9nc(-c%10ccccc%10)c(*)nc9c8)ccc7nc6-c6ccccc6)cc4)C5=O)cc3C2=O)cc1 (repeat unit),240.00
12,*OC(=O)OCC(O)C(O)COC(=O)OC1COC2C(*)COC12 (repeat unit),78.50
13,*c1ccc(-c2ccc(C(*)(C(F)(F)F)C(F)(F)F)cc2)cc1 (repeat unit),264.00
14,*CC(*)(C)C(=O)OCC#C (repeat unit),58.00
15,*Oc1ccc(S(=O)(=O)c2ccc(Oc3ccc4c(=O)n5c6cc(Oc7ccc8c(c7)nc7c9ccc(*)c%10cccc(c(=O)n87)c%109)ccc6nc5c5cccc3c45)cc2)cc1 (repeat unit),374.00
16,*CC(*)Cl (repeat unit) [Poly(vinyl chloride)],78.42 ± 2.2
17,*c1c(C)cc(C)c(N2C(=O)c3ccc(Sc4ccc5c(c4)C(=O)N(*)C5=O)cc3C2=O)c1C (repeat unit),378.00
18,*Oc1ccc(S(=O)(=O)c2ccc(Oc3ccc(-c4ccc(-c5ccc(*)c(C(F)(F)F)c5)cc4)cc3C(F)(F)F)cc2)cc1 (repeat unit),214.00
19,*Nc1cc(NC(=O)c2cccc(C(*)=O)c2)cc(-c2nnc(-c3ccccn3)o2)c1 (repeat unit),155.00
20,*c1ccc2c(c1)Sc1cc(-c3sc4cc(*)sc4c3CCCCC)ccc1N2CCCCCC (repeat unit),126.00
21,*Oc1c(Cl)cc(C(C)(C)c2cc(Cl)c(OC(=O)CCCCC(*)=O)c(Cl)c2)cc1Cl (repeat unit),100.00
22,*O[Si](*)(C)CC (repeat unit),-133.00

row,Compound,glass transition temperature [°C]
1,*CC(=O)Nc1ccc(Cc2ccc(NC(=O)c3ccc4c(c3)C(=O)N(*)C4=O)cc2)cc1 (repeat unit),266.00
2,*c1cccc(OCCCCCCCCCCOc2cccc(N3C(=O)c4ccc(-c5ccc6c(c5)C(=O)N(*)C6=O)cc4C3=O)c2)c1 (repeat unit),125.00
3,*C(=O)Nc1ccc(Oc2ccc(NC(=O)c3ccc4c(c3)C(=O)N(c3ccc(Cc5ccc(N6C(=O)c7ccc(*)cc7C6=O)cc5)cc3)C4=O)cc2)cc1 (repeat unit),251.00
4,*c1ccc2c(c1)C(=O)N(c1cc(C(c3ccc(OCCN(CC)c4ccc(/N=N/c5ccc([N+](=O)[O-])cc5)cc4)c(N4C(=O)c5ccc(C(*)(C(F)(F)F)C(F)(F)F)cc5C4=O)c3)(C(F)(F)F)C(F)(F)F)ccc1OCCN(CC)c1ccc(/N=N/c3ccc([N+](=O)[O-])cc3)cc1)C2=O (repeat unit),199.00
5,*Oc1ccc(CC(NC(=O)CCc2ccc(OC(=O)CCCC(*)=O)cc2)C(=O)OC)cc1 (repeat unit),76.00
6,*CCCCCC(*)CC (repeat unit),-73.00
7,*CCN(Cc1ccccc1)C(=O)S* (repeat unit),32.00
8,*/C=C/C1CC(*)C(C#N)(C[Si](C)(C)C)C1 (repeat unit),128.00
9,*C(=O)OCCCSCCCCCCSCCCOC(=O)c1ccc(N2C(=O)c3ccc(*)cc3C2=O)cc1 (repeat unit),31.00
10,*c1ccc2c(c1)C(=O)N(c1ccc(C(c3ccccc3)(c3ccc(N4C(=O)c5ccc(C(*)(C(F)(F)F)C(F)(F)F)cc5C4=O)cc3)C(F)(F)F)cc1)C2=O (repeat unit),305.00
11,*NC(CCC(=O)OCCCCCCCC)C(*)=O (repeat unit),-59.50
12,*OC1CCC(OC(=O)OCCCCCOC(*)=O)CC1 (repeat unit),-5.00
13,*CCCCCOC(=O)c1ccccc1C(=O)[O][Cd][O]C(=O)c1ccccc1C(=O)OCCCCCOC(=O)Nc1ccc(C)c(NC(=O)O*)c1 (repeat unit),2.30
14,*CC(*)C(=O)NC(C)(C)CS(=O)(=O)O (repeat unit),85.00
15,*CCCCCCCCCCCCOc1ccc(OCc2ccc(COc3ccc(O*)cc3)cc2)cc1 (repeat unit),24.00
16,*c1ccc(Oc2cccc(NC(=O)c3cc(C(=O)Nc4cccc(Oc5ccc(-c6nnc(*)o6)cc5)c4)cc(N4C(=O)c5c(Cl)c(Cl)c(Cl)c(Cl)c5C4=O)c3)c2)cc1 (repeat unit),275.00
17,*C(=O)c1ccc2c(c1)C(=O)N(c1ccccc1Cc1ccccc1N1C(=O)c3ccc(*)cc3C1=O)C2=O (repeat unit),285.00
18,*Oc1ccc(S(=O)(=O)c2ccc(Oc3ccc(C4(c5ccc(*)cc5)c5ccccc5-c5ccccc54)cc3)cc2)cc1 (repeat unit),278.50
19,*CC(COc1ccc(C(C)(c2ccccc2)c2ccc(O*)cc2)cc1)OC(=O)c1ccccc1 (repeat unit),126.00
20,*Cc1ccc(COP(=O)(/N=N/c2ccc(C(=O)c3ccc(/N=N/P(=O)(O*)OC)cc3)cc2)OC)cc1 (repeat unit),48.00
21,*Oc1ccc(CC(NC(=O)CCc2ccc(OC(=O)CCC(*)=O)cc2)C(=O)OC(C)C)cc1 (repeat unit),82.00
22,*c1cccc(Oc2cccc(Oc3cccc(-n4c(=O)c5cc6c(=O)n(*)c(=O)c6cc5c4=O)c3)c2)c1 (repeat unit),221.00

row,Compound,glass transition temperature [°C]
1,*c1ccc(Oc2ccc(Oc3ccc(N4C(=O)c5ccc(Oc6ccccc6Oc6ccc7c(c6)C(=O)N(*)C7=O)cc5C4=O)cc3C(F)(F)F)cc2)c(C(F)(F)F)c1 (repeat unit),197.00
2,*CC(*)(C)C(=O)OCCCCCCCCCCCCCCCCCC (repeat unit),-100.00
3,*CCOCCOCCOCCOc1ccc(/C=C(\C)c2ccc(O*)cc2)cc1 (repeat unit),7.50
4,*Oc1ccc(Oc2ccc(NC(=O)c3ccc(Oc4ccc(Oc5ccc(C(=O)Nc6ccc(*)cc6)cc5)cc4-c4ccccc4)cc3)cc2)cc1-c1ccccc1 (repeat unit),200.50
5,*c1cccc(S(=O)(=O)c2cccc(N3C(=O)c4ccc(Oc5ccc(Sc6ccc(Oc7ccc8c(c7)C(=O)N(*)C8=O)cc6)cc5)cc4C3=O)c2)c1 (repeat unit),231.00
6,*C(=O)NC1CCCC(*)O1 (repeat unit),145.00
7,*/C=C/c1cc(OCC(CC)CCCC)c(/C=C/c2cc(OC)c(*)cc2OC)cc1OC (repeat unit),110.00
8,*CC(*)(C)C(=O)OCCCCOc1ccc(OC(=O)c2ccc(OC)c(Br)c2)cc1 (repeat unit),69.00
9,*CC(*)c1ccc(C([Si](C)(C)C)[Si](C)(C)C)cc1 (repeat unit),156.00
10,*Oc1ccc(C2(c3ccc(Oc4ccc(C(=O)c5ccc(*)cc5)cc4)cc3)CCC3CCCCC3C2)cc1 (repeat unit),214.00
11,*Oc1ccc(C(c2ccc(Oc3ccc(C(=O)C(=O)c4ccc(*)cc4)cc3)cc2)(C(F)(F)F)C(F)(F)F)cc1 (repeat unit),162.00
12,*Oc1ccc(C(C)(C)c2ccc(C(C)(C)c3ccc(Oc4ccc(C(=O)Nc5ccc(Cc6ccc(NC(=O)c7ccc(*)cc7)cc6)cc5)cc4)cc3)cc2)cc1 (repeat unit),162.00
13,*O[Si](C)(C)O[Si](C)(C)O[Si](C)(C)O[Si](C)(C)Oc1c(C)cc(-c2cc(C)c(*)c(C)c2)cc1C (repeat unit),-16.00
14,*CC(*)(CC(=O)Oc1ccc(OCCCCCCC)cc1)C(=O)Oc1ccc(OCCCCCCC)cc1 (repeat unit),111.00
15,*CC(*)(C)C(=O)OCc1c(Cl)cccc1Cl (repeat unit),58.90
16,*c1cc(Br)c(-c2c(Br)cc(N3C(=O)c4ccc(-c5ccc6c(c5)C(=O)N(*)C6=O)cc4C3=O)cc2C(=O)OCCCCCCCC)c(C(=O)OCCCCCCCC)c1 (repeat unit),135.50
17,*CC(*)(C)C(=O)OCCC(F)(F)C(F)(F)C(F)(F)C(F)(F)F (repeat unit),23.00
18,*c1ccc2c(c1)C(=O)N(c1c(C)cc(Cc3cc(C)c(N4C(=O)c5ccc(C(*)(C(F)(F)F)C(F)(F)F)cc5C4=O)c(C)c3)cc1C)C2=O (repeat unit),307.50
19,*CCOCCOCCOc1ccc(/C=C/c2cc(OC)c(/C=C/c3ccc(O*)c4ccccc34)cc2OC)c2ccccc12 (repeat unit),79.50
20,*Oc1ccc(C(C)(C)c2ccc(OC(=O)C3CCC(C(*)=O)CC3)cc2)cc1 (repeat unit),150.00
